Assay results published in the NIST ThermoML archive (doi:10.1016/j.jct.2017.06.001).

Test: xn = mol fraction of the nth substance listed
Conditions: 100 kPa, Liquid; for mass density: Vibrating tube method; for speed of sound: 288.15 K, Frequency=5 MHz, Pulse-echo method

OCCCCCO [1,5-pentanediol] + O
mass density [kg/m3]
Conditions | 278.15 K | 283.15 K
x1 = 0.005 | 999.89 | 999.55
x1 = 0.0101 | 1000.22 | 999.78
x1 = 0.0196 | 1001.39 | 1000.73
x1 = 0.0251 | 1002.34 | 1001.54
x1 = 0.0304 | 1003.39 | 1002.41
x1 = 0.05 | 1006.63 | 1005.19
x1 = 0.0769 | 1009.88 | 1007.89
x1 = 0.1002 | 1012.01 | 1009.64
x1 = 0.1438 | 1013.87 | 1011.18
x1 = 0.1845 | 1014.45 | 1011.58
x1 = 0.2503 | 1014 | 1010.96
x1 = 0.3 | 1013.14 | 1010.06
x1 = 0.3343 | 1012.59 | 1009.43
x1 = 0.4171 | 1010.69 | 1007.58
x1 = 0.454 | 1009.8 | 1006.71
x1 = 0.5003 | 1008.7 | 1005.6
x1 = 0.5362 | 1007.8 | 1004.7
x1 = 0.6177 | 1006 | 1003
x1 = 0.6478 | 1005.3 | 1002.3
x1 = 0.7025 | 1004.2 | 1001.2
x1 = 0.7504 | 1003.3 | 1000.3
x1 = 0.7927 | 1002.5 | 999.4
x1 = 0.8605 | 1001.1 | 998.1
x1 = 0.9004 | 1000.2 | 997.3
x1 = 0.9496 | 999.1 | 996.1
x1 = 1 | 998 | 995

Conditions | speed of sound [m/s]
x1 = 0.0001 | 1467
x1 = 0.0002 | 1467.6
x1 = 0.0004 | 1468.5
x1 = 0.0007 | 1469.7
x1 = 0.001 | 1471.1
x1 = 0.0013 | 1472.4
x1 = 0.0018 | 1474.5
x1 = 0.0025 | 1477.3
x1 = 0.0032 | 1480.3
x1 = 0.0039 | 1483.3
x1 = 0.0047 | 1486.5
x1 = 0.0053 | 1489.1
x1 = 0.0059 | 1491.7
x1 = 0.0066 | 1494.6
x1 = 0.0074 | 1497.4
x1 = 0.0079 | 1499.7
x1 = 0.0086 | 1502.2
x1 = 0.0092 | 1504.6
x1 = 0.0098 | 1507
x1 = 0.0105 | 1509.5
x1 = 0.0112 | 1512
x1 = 0.0118 | 1514.3
x1 = 0.0125 | 1516.8
x1 = 0.0131 | 1519
x1 = 0.0138 | 1521.4
x1 = 0.0144 | 1523.8
x1 = 0.0151 | 1526.1
x1 = 0.0157 | 1528.2
x1 = 0.0164 | 1530.5
x1 = 0.0171 | 1532.7
x1 = 0.0177 | 1535
x1 = 0.0184 | 1537.1
x1 = 0.0188 | 1538.3
x1 = 0.0193 | 1540.1
x1 = 0.0199 | 1541.8
x1 = 0.0204 | 1543.6
x1 = 0.021 | 1545.5
x1 = 0.0219 | 1548.2
x1 = 0.0226 | 1550.3
x1 = 0.0233 | 1552.4
x1 = 0.024 | 1554.5
x1 = 0.0247 | 1556.6
x1 = 0.0256 | 1559.3
x1 = 0.0266 | 1562.2
x1 = 0.0278 | 1565.4
x1 = 0.0289 | 1568.3
x1 = 0.0299 | 1571
x1 = 0.0309 | 1573.7
x1 = 0.0319 | 1576.4
x1 = 0.0331 | 1579.3
x1 = 0.0342 | 1582.3
x1 = 0.0353 | 1584.9
x1 = 0.0365 | 1587.7
x1 = 0.0376 | 1590.3
x1 = 0.0387 | 1592.9
x1 = 0.0398 | 1595.3
x1 = 0.0409 | 1597.9
x1 = 0.042 | 1600.2
x1 = 0.0431 | 1602.6
x1 = 0.0445 | 1605.6
x1 = 0.0456 | 1607.8
x1 = 0.0473 | 1611.2
x1 = 0.0482 | 1612.9
x1 = 0.049 | 1614.5
x1 = 0.0499 | 1616.2
x1 = 0.0513 | 1618.7
x1 = 0.0529 | 1621.5
x1 = 0.0547 | 1624.7
x1 = 0.0561 | 1627.2
x1 = 0.0576 | 1629.6
x1 = 0.0595 | 1632.6
x1 = 0.0613 | 1635.3
x1 = 0.0632 | 1638.1
x1 = 0.0654 | 1641.4
x1 = 0.0673 | 1644
x1 = 0.0692 | 1646.6
x1 = 0.0715 | 1649.5
x1 = 0.0744 | 1653
x1 = 0.0768 | 1655.8
x1 = 0.0796 | 1658.9
x1 = 0.0824 | 1661.8
x1 = 0.0856 | 1665
x1 = 0.0887 | 1667.9
x1 = 0.0921 | 1670.8
x1 = 0.0965 | 1674.4
x1 = 0.1006 | 1677.4
x1 = 0.1051 | 1680.5
x1 = 0.1102 | 1683.6
x1 = 0.1153 | 1686.5
x1 = 0.1208 | 1689.2
x1 = 0.1238 | 1690.6
x1 = 0.1303 | 1693.2
x1 = 0.1382 | 1696
x1 = 0.1442 | 1697.7
x1 = 0.1503 | 1699.3
x1 = 0.1556 | 1700.5
x1 = 0.1612 | 1701.6
x1 = 0.167 | 1702.6
x1 = 0.1694 | 1703
x1 = 0.1748 | 1703.7
x1 = 0.1799 | 1704.3
x1 = 0.1852 | 1704.8
x1 = 0.1903 | 1705.2
x1 = 0.1955 | 1705.6
x1 = 0.2007 | 1705.9
x1 = 0.2046 | 1706
